Where two headings read alike, the source gives them in different places.
Experiments:
Assay in all cases: microbe, parasite or virus in culture
B/Shandong/7/97 = assay type: cell-based; conditions: for IC50: Influenza B virus, 72 h, read-out: concentration of the compound necessary to reduce the plaques number to 50% against the control
A/Panama/2007/99-H3N2 = assay type: cell-based, influenza virus type A; conditions: for IC50: Influenza A virus, H3N2, MDCK, 72 h, read-out: concentration of the compound necessary to reduce the plaques number to 50% against the control
[1] = system: A/NewCaledonia/20/99-H1N1; assay type: cell-based, influenza virus type A; conditions: for IC50: Influenza A virus, H1N1, MDCK, 72 h, read-out: concentration of the compound necessary to reduce the plaques number to 50% against the control
[2] = MDCK cells, about 50 PFU/ml, 3 days, tested 0.01-100 μM, duplicate

In the case of `NC12CC3CC(CC(C3)C1)C2` [Amantadine, amantadine, reference compound], the IC50 (B/Shandong/7/97; MDCK) is reported as greater than 100 µM, the IC50 (A/Panama/2007/99-H3N2) is reported as 10 µM and the IC50 [1] is reported as 0.1 µM.
`CC(=O)NC1C(O)CC(O)(C(=O)O)OC1CNC12CC3CC(CC(C3)C1)C2` (stereo not shown) [Compound 1] was tested, and the IC50 (B/Shandong/7/97; [2]) was 10 µM, the IC50 (A/Panama/2007/99-H3N2) was 10 µM and the “antiviral activity relative to amantadine (fold less)” value [1] was 10 fold. It also gave an IC50 [1] of 1 µM.
For `CC(=O)NC1C(O)CC(O)(C(=O)O)OC1CNC12CC3CC(C)(CC(C)(C3)C1)C2` (stereo not shown) [Compound 8], the IC50 (B/Shandong/7/97; [2]) was greater than 100 µM, the “antiviral activity against influenza virus type B in the tested concentration range” value (B/Shandong/7/97; tested 0.01-100 μM, PRA) was “Any antiviral activity of Compound 8 has been evidenced” and the “antiviral activity relative to memantine (fold more)” value (A/Panama/2007/99-H3N2) was roughly 10 fold. For the same compound, the IC50 (A/Panama/2007/99-H3N2) was 10 µM, the “antiviral activity relative to memantine (fold more)” value [1] was roughly 10 fold and the IC50 [1] was 10 µM.
For `CC12CC3CC(C)(C1)CC(N)(C3)C2` [Memantine, memantine, reference compound], the IC50 (B/Shandong/7/97; [2]) was 100 µM, the IC50 (A/Panama/2007/99-H3N2) was 100 µM and the IC50 [1] was 100 µM.
